pIC50: −log10 of the molar value.
Assays:
[1] = biological target: T1, soluble guanylate cyclase (sGC) (Bos taurus, UniProt P16068+P19687); test: Activity of purified sGC stimulated with DEA/NO; type: biochemical, bovine; conditions: for Emax of DEA/NO-stimulated sGC activity in presence of flavoring: flavoring 1 mM, DEA/NO 0.01–10 μM
T1 construct: The activity of sGC purified from bovine lung; from tissue; host or cells: bovine lung
T1 sequence (P19687 1-691): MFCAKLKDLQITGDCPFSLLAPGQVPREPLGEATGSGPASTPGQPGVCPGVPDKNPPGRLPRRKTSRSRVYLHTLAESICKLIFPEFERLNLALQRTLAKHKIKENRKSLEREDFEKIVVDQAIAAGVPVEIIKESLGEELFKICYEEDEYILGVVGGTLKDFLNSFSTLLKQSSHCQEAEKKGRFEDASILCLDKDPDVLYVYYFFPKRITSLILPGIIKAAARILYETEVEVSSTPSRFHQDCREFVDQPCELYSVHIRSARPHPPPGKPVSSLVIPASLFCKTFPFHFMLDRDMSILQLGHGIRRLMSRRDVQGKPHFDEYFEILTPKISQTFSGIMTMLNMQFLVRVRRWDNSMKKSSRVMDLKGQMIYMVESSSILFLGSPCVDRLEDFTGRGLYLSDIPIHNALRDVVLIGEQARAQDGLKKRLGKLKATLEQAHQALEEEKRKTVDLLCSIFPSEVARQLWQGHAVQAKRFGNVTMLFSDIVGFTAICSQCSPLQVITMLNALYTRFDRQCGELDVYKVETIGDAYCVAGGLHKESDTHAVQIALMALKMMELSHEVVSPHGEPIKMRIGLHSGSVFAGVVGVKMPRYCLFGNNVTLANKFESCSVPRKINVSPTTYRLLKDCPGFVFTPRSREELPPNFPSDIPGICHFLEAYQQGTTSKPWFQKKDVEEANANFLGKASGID
T1 sequence (P16068 1-619): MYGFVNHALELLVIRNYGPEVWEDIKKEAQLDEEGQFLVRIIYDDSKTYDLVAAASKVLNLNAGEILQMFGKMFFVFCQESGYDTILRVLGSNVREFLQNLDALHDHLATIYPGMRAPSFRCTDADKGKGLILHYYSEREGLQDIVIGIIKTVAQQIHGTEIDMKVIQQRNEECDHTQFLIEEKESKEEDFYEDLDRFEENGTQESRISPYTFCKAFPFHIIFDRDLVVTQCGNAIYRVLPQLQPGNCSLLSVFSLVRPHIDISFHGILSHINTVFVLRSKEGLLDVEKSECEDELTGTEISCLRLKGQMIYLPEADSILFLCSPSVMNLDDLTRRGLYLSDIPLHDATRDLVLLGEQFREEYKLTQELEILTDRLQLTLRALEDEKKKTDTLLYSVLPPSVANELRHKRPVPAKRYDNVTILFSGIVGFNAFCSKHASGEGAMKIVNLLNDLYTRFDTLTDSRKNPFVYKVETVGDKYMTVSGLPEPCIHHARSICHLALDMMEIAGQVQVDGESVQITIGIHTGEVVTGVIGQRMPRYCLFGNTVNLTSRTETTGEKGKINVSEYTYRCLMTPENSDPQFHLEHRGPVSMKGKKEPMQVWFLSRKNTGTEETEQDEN
Description: The activity of sGC purified from bovine lung was determined as formation of [^32P]cGMP from [α-^32P]GTP. The purified enzyme (50 ng) was incubated at 37°C for 10 min in a final volume of 0.1 ml in the absence or presence of flavorings with the NO donor DEA/NO at concentrations indicated in the figure legends, followed by isolation of [^32P]cGMP and quantification of radioactivity (Cerenkov radiation) in a β counter.
To test for reversibility of inhibition, sGC (50 ng) was preincubated in the absence or presence of the respective compounds for 5 minutes at 37°C, followed by 50-fold dilution in the assay mixtures and incubation with DEA/NO at 37°C for 10 minutes.

[2] = tested on: endothelium-denuded rat aortic rings; test: CaCl2-induced contractile response in endothelium-denuded aortic rings; conditions: Ca2+-free high K+ solution, CaCl2 0.156-2.5 mM
Description: Rings were treated with Ca2+-
4 free high K+ solution (containing 0.1 mM EG TA a n d 6 0 mM K+). The Ca2+-free
5 preparations were then cumulatively contracted with CaCl2 (0.156-2.5 mM) in the
6 absence or presence of cinnamaldehyde or eugenol. The established L-type Ca2+
9 Concentration-response curves obtained with different ring segments from a single
10 animal were averaged and counted as an individual experiment. Data are expressed
11 as mean values ±SEM ( n=3).
(1 picture or pasted object on this page, not shown here)

C=CCc1ccc(O)c(OC)c1 [Eugenol, 2-Methoxy-4-(prop-2-en-1-yl)phenol]
Emax of DEA/NO-stimulated sGC activity in presence of flavoring [1]: 28±1.1 µmol cGMP x min-1 x mg-1
Effect on CaCl2-induced contraction [2]: significantly inhibited

O=C/C=C/c1ccccc1 [Cinnamaldehyde, (2E)-3-Phenylprop-2-enal]
pIC50 ([1]; DEA/NO 0.05 μM, 95% CI): 3.25
Reversal of sGC inhibition by 50-fold dilution ([1]; enzyme pre-incubated 5 minutes with 1 mM): largely
Emax of DEA/NO-stimulated sGC activity in presence of flavoring [1]: 24±0.8 µmol cGMP x min-1 x mg-1
Effect on CaCl2-induced contraction [2]: significantly inhibited

— article PMC6733504, “Effects of flavoring compounds used in electronic cigarette refill liquids on endothelial and vascular function” (PLoS ONE, 2019)
